Test results as given in ChEMBL document CHEMBL4387772, “Design, synthesis and biological evaluation of hypolipidemic compounds based on BRD4 inhibitor RVX-208” (Bioorg Med Chem Lett, 2019).

Tests used:
Rattus norvegicus [1] = experiment: Antihyperlipidemic activity in Sprague-Dawley rat assessed as increase in HDL-C level at 30 mg/kg, po administered twice daily for 1 week measured 2 hrs post-last dose by HPLC analysis relative to control; format: functional
[2] = target: Bromodomain-containing protein 4 (Homo sapiens, UniProt O60885); experiment: Inhibition of BRD4 bromodomain 2 (unknown origin) incubated for 30 mins by ELISA
HepG2 = experiment: Up regulation of ApoA1 mRNA expression in human HepG2 cells at 100 uM by RT-PCR analysis relative to control; format: functional
Rattus norvegicus [3] = experiment: Antihyperlipidemic activity in Sprague-Dawley rat assessed as decrease in triglyceride level at 30 mg/kg, po administered twice daily for 1 week measured 2 hrs post-last dose by GPO-PAP analysis relative to control; format: functional; set-up: scale not given: the % may be the effect or the level left
Rattus norvegicus [4] = experiment: Antihyperlipidemic activity in po dosed Sprague-Dawley rat assessed as decrease in triglyceride level administered twice daily for 1 week measured 2 hrs post-last dose by GPO-PAP analysis relative to control; format: functional; set-up: scale not given: the % may be the effect or the level left
Rattus norvegicus [5] = experiment: Antihyperlipidemic activity in po dosed Sprague-Dawley rat assessed as increase in HDL-C level administered twice daily for 1 week measured 2 hrs post-last dose by HPLC analysis relative to control; format: functional

`COc1cc(OC)c2c(=O)[nH]c(-c3cc(OC)c(OC(=O)C(C)(C)Oc4ccc(Cl)cc4)c(OC)c3)nc2c1` was tested, and the Activity (Rattus norvegicus [1]) was 29.39%, the IC50 [2] was 9.7 nM and the Activity (HepG2) was 42.65%. The Activity (Rattus norvegicus [3]) was 37.34%.

For `COc1cc(OC)c2c(=O)[nH]c(-c3ccc(C(=O)OCCO)cc3)nc2c1`, the Activity (Rattus norvegicus [1]) was 16.51%, the IC50 [2] was 71 nM and the Activity (HepG2) was 25.3%. It also gave an Activity (Rattus norvegicus [3]) of 11.94%.

With `COc1cc(OC)c2c(=O)[nH]c(-c3cc(C)c(OC(=O)C(C)(C)Br)c(C)c3)nc2c1` the Activity (Rattus norvegicus [1]) was 19.33%, the IC50 [2] was 53.8 nM and the Activity (HepG2) was 34.85%. The Activity (Rattus norvegicus [3]) was 36.21%.

For `COc1cc(OC)c2c(=O)[nH]c(-c3cc(C)c(OCCO)c(C)c3)nc2c1` [APABETALONE], the Activity (HepG2) was 38.91%, the Activity (Rattus norvegicus [4]) was 3.13% and the Activity (Rattus norvegicus [5]) was 23.84%.

With `Cc1ccc(C)c(OCCCC(C)(C)C(=O)O)c1` [GEMFIBROZIL] the Activity (Rattus norvegicus [4]) was 39.66% and the Activity (Rattus norvegicus [5]) was 7.03%.

With `COc1cc(OC)c2c(=O)[nH]c(-c3cc(C)c(OC(=O)C(C)(C)Oc4ccc(Cl)cc4)c(C)c3)nc2c1` the Activity (Rattus norvegicus [1]) was 22.5%, the IC50 [2] was 39.6 nM and the Activity (HepG2) was 38.09%. It also gave an Activity (Rattus norvegicus [3]) of 34.85%.

With `COc1cc(OC)c2c(=O)[nH]c(-c3cc(OC)c(OC(=O)CC(=O)OC(C)(C)C(=O)O)c(OC)c3)nc2c1` the Activity (Rattus norvegicus [1]) was 21.58%, the IC50 [2] was > 100 nM and the Activity (HepG2) was 37.34%. For the same compound, the Activity (Rattus norvegicus [3]) was 50.36%.

`COc1cc(OC)c2c(=O)[nH]c(-c3cc(OC)c(OCCO)c(OC)c3)nc2c1` gave an Activity (Rattus norvegicus [1]) of 20.61%, an IC50 [2] of 27.5 nM and an Activity (HepG2) of 32.77%. It also gave an Activity (Rattus norvegicus [3]) of 5.07%.

With `COc1cc(OC)c2c(=O)[nH]c(-c3cc(C)c(OC(=O)CC(=O)OC(C)(C)C(=O)O)c(C)c3)nc2c1` the Activity (Rattus norvegicus [1]) was 16.46%, the IC50 [2] was > 100 nM and the Activity (HepG2) was 21.67%. For the same compound, the Activity (Rattus norvegicus [3]) was 48.59%.

In the case of `COc1cc(OC)c2c(=O)[nH]c(-c3cc(OC)c(OC(=O)C(C)(C)Br)c(OC)c3)nc2c1`, the Activity (Rattus norvegicus [1]) is reported as 32.74%, the IC50 [2] is reported as 20.9 nM and the Activity (HepG2) is reported as 44.82%. For the same compound, the Activity (Rattus norvegicus [3]) was 41.63%.

Compound `CCOC(=O)C(C)(C)Oc1ccc(Cl)cc1` [CLOFIBRATE] has an Activity (Rattus norvegicus [4]) of 41.35% and an Activity (Rattus norvegicus [5]) of 5.92%.
